Read-outs that look alike come from different tables or passages of the source.
Legend:
Junin virus = test system: Junin virus; design: species or system guinea pigs; conditions: guinea pig, in vivo
rJunin (rRomero) virus = test system: rJunin (rRomero) virus; design: species or system guinea pigs; conditions: guinea pig, in vivo
[1] = Pharmacokinetics and tolerability in guinea pigs (Example 1); conditions: 50 mg/kg PO, blood by vena cava bleed
Lassa (Josiah) virus = test system: Lassa (Josiah) virus; design: species or system guinea pigs; conditions: guinea pig, in vivo

COc1ccc(C(CC(N)=O)N2Cc3ccccc3C2=O)cc1OC (stereo not drawn) [Compound A, 3-(3,4-dimethoxy-phenyl)-3-(1-oxo-1,3-dihydro-isoindol-2-yl)-propionamide]
average weight loss (Junin virus): 0.69% | survival rate (Junin virus): 50% | temperature findings (febrile, hypothermic) (Junin virus): All animals that died were febrile between day +7 and +10 and two were hypothermic on day +14 | (highest) average weight loss (rJunin (rRomero) virus): 1.33% | survival rate (rJunin (rRomero) virus): 33% | temperature findings (febrile, hypothermic) (rJunin (rRomero) virus): All animals that died were febrile between day +7 and +15 and four out of six were hypothermic before death | (highest) average weight loss (rJunin (rRomero) virus; po, 50 mg/kg): 5.89% | survival rate (rJunin (rRomero) virus; po, 50 mg/kg): 22% | temperature findings (febrile, hypothermic) (rJunin (rRomero) virus; po, 50 mg/kg): All animals that died were febrile between day +5 and +13 and three out of seven were hypothermic before death | adequacy of the dose according to the pharmacokinetic results [1]: within range | (highest) average weight loss (Lassa (Josiah) virus): 12.17% | animals surviving to the end of study (Lassa (Josiah) virus): None of the animals survived | temperature findings (febrile, hypothermic) (Lassa (Josiah) virus): All animals were febrile between day +7 and +19 and two were hypothermic before death | (highest) average weight loss (Lassa (Josiah) virus; po, 50 mg/kg): 5.36% | survival rate (Lassa (Josiah) virus; po, 50 mg/kg): 44% | temperature findings (febrile, hypothermic) (Lassa (Josiah) virus; po, 50 mg/kg): All animals, including the survivors, were febrile between day +7 and +17 and none of the animals were hypothermic before death

CCOc1cc(C(CS(C)(=O)=O)N2Cc3cccc(NC(=O)C4CC4)c3C2=O)ccc1OC (stereo not drawn) [Compound B, N-(2-(1-(3-ethoxy-4-methoxyphenyl)-2-(methylsulfonyl)ethyl)-3-oxoisoindolin-4-yl)cyclopropanecarboxamide]
average weight loss (Junin virus): 4.4% | survival rate (Junin virus): 17% | temperature findings (febrile, hypothermic) (Junin virus): Most of the animals in this group were febrile starting at day +7 but none were recorded as hypothermic | (highest) average weight loss (rJunin (rRomero) virus): 12.41% | survival rate (rJunin (rRomero) virus): 11% | temperature findings (febrile, hypothermic) (rJunin (rRomero) virus): All of the animals in this group except the survivor were febrile starting day +7 thru +11 and four were recorded as hypothermic before death | adequacy of the dose according to the pharmacokinetic results [1]: needed to be increased | (highest) average weight loss (Lassa (Josiah) virus): 13.08% | survival rate (Lassa (Josiah) virus): 13% | temperature findings (febrile, hypothermic) (Lassa (Josiah) virus): All of the animals in this group except the survivor were febrile starting day +8 thru +16 and only one was recorded as hypothermic before death

NC(=O)c1ncn([C@@H]2O[C@H](CO)[C@@H](O)[C@H]2O)n1 [Ribavirin, reference compound]
animals surviving to the end of study (Junin virus): all 3 animals survived | temperature findings (febrile, hypothermic) (Junin virus): Only 1 animal was febrile on day +27 | weight loss up to (Junin virus): up to 5.2% | animals surviving to the end of study (rJunin (rRomero) virus): all 3 animals survived | temperature findings (febrile, hypothermic) (rJunin (rRomero) virus): Only one animal was intermittently febrile between days +16 and +27 | weight loss of the intermittently febrile animal (rJunin (rRomero) virus): 17.67% | weight loss up to (rJunin (rRomero) virus): up to 3.09% | animals surviving to the end of study (Lassa (Josiah) virus): only one animal survived | average group weight loss up to (Lassa (Josiah) virus): up to 15.39% | temperature findings (febrile, hypothermic) (Lassa (Josiah) virus): Only one of the two animals that died was febrile once on day +17
